We go through three molecules from patent US8617516B2, “Universal anchor peptide for nanoparticles” (Washington University, priority 2008, dated 2013).

Data set [1] in a line: Fluorescence correlation spectroscopy (FCS) diffusion time. The note with it: mean±STD (n=3). The format is physicochemical. From the text: FCS is a quantitative technique, which detects fluorescence intensity fluctuations as fluorescent molecules diffuse through a small observation volume (<1 femtoliter). Statistical analysis of these fluorescence intensity fluctuations allows simultaneous determination of the number of fluorescent species in the system and their mobility.
In our case the observation volume is defined by the focal volume of a laser scanning microscope, while the statistical analysis of the intensity trace is calculated as follows: […]
The correlation curve obtained from the experiment is fitted with a mathematical function which describes the fluorescence intensity fluctuations in the observation volume according to Brownian diffusion and it also accounts for the photophysical characteristics of the dye:
where N is the average number of fluorescent particles in the observation volume, T is the fraction of fluorophores in the triplet state, τT is the lifetime of the triplet state of the fluorophore, τD is the characteristic diffusion time of the fluorophore, ω0 the waist radius of the laser focus. […]
The waist of the focus ω0 was determined by fitting the autocorrelation curve obtained in the same experimental conditions using free Alexa Fluor 488 [22]. In the case of labeled peptide binding to the nanoparticles the correlation curves were analyzed using the two component model as was described previously.

Data set [2] in a line: Dynamic light scattering size and zeta potential of peptide-loaded PFOB/PFC nanoparticles. The format is physicochemical. How it is done:
The size distributions of the nanoparticles with or without the linker peptide were analyzed by dynamic light scattering (Brookhaven Instruments Corp., Holtsville, N.Y.). Zeta potential (ζ) values were determined with a Brookhaven Instruments PALS Zeta Potential Analyzer (Brookhaven Instruments Corp., Holtsville, N.Y.). Data were acquired in the phase-analysis light scattering (PALS) mode following solution equilibration at 25° C. […] This change further confirms the insertion of the linker peptide 1 into the PFOB nanoparticles. Furthermore, the structural integrity of linker peptide 1 inserted PFOB nanoparticles was confirmed by transmission electron microscopy.
The size distributions of the nanoparticles with or without cargo incorporated were analyzed by dynamic light scattering (Brookhaven Instruments Corp., Holtsville, N.Y.). The size distribution was plotted by particle number. Zeta potential (ζ) values were determined with a Brookhaven Instruments PALS Zeta Potential Analyzer (Brookhaven Instruments Corp., Holtsville, N.Y.). Data were acquired in the phase-analysis light scattering (PALS) mode following solution equilibration at 25° C.

The nature of data set [3]: Surface plasmon resonance of NBD-Linker incorporation into PFC nanoparticles. Type of data set: binding. To be noted: NBD-Linker on immobilized PFC nanoparticles, two-state model; read-out: dissociation constant of the entire process. The protocol:
The kinetics of NBD-Linker incorporation into lipid monolayers of PFC nanoparticles was studied by surface plasmon resonance (SPR). SPR detects change in the […] of a surface (Biacore-X 100 and carboxymethylated dextran chip L1 from Biacore Inc, Piscataway, N.J.). A uniform lipid monolayer on a L1 chip was created by injecting PFC nanoparticles (3 μl/min) for 30 minutes. Loosely deposited nanoparticles were removed by performing extra washing steps after immobilization to ensure a stable baseline. Complete coverage was confirmed by injecting the bovine serum albumin (1 mg/ml in PBS) at 15 μl/min for 2 minutes. Different peptides in selected concentrations were injected at a flow rate of 30 μl/min for 1 minute. At the end of each experiment the chip was regenerated by two consecutive injections of 3-[(3-cholamidopropyl)dimethylammonio]-1-propanesulfonate, CHAPS (50 μl, 100 μl/min). The data were analyzed with BiaEvaluation software (Biacore Inc, Piscataway, N.J.). A two-state model, [17].
To investigate the release rate of the NBD-Linker from the PFC nanoparticles, surface plasma resonance experiments were performed with a Biacore X 100, which allows quantitative analysis of interaction between peptide and lipid membrane. […] We consistently recorded two populations of peptides in the peptide-lipid interactions. […]
(SPR reads the build-up and loss of mass on a sensor chip optically.)

Another data set deals with T1, VCAM-1 (Mus musculus, UniProt P29533).
T1 construct: endogenous in cells; host or cells: 2F2B endothelial cells, TNF-α stimulated
T1 sequence (P29533 25-739): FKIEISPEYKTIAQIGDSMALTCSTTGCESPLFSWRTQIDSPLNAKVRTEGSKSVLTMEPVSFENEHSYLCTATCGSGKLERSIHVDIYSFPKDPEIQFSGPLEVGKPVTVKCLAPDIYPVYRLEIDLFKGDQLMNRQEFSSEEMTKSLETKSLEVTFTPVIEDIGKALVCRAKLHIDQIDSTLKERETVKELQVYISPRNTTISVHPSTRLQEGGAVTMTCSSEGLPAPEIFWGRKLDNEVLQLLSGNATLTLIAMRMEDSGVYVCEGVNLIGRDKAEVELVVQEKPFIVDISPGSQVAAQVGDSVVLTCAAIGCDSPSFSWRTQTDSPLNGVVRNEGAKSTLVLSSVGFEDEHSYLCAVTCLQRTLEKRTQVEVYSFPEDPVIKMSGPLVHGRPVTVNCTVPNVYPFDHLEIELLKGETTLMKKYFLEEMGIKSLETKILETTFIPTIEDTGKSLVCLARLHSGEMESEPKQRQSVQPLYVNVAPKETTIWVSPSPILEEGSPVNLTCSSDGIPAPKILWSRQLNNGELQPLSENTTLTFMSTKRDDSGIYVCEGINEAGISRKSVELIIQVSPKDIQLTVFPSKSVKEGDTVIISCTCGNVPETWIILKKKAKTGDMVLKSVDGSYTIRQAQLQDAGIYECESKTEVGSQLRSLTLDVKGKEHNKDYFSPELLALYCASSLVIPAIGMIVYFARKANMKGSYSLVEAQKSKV
The experiment in a line: Specific binding of VCAM targeted nanoparticles by confocal microscopy. The format is cell-based. The note with it: Alexa Fluor 488 labeled PFOB nanoparticles, TNF-α stimulated 2F2B cells, 1 hour. How it is done:
The specific binding of VCAM targeted nanoparticles was evaluated by confocal microscopy in 2F2B cells, which express VCAM-1 on the cell surface after TNF-α stimulation. Alexa Fluor 488 labeled PFOB nanoparticles comprising the VCAM-targeting peptide (TCP1 or TCP2) or nanoparticles themselves were incubated with TNF-α stimulated 2F2B cells in Delta T Culture dish at 37° C. for 1 hour, followed by five PBS washes. Cells were then fixed by incubation in 1 ml of 4% paraformaldehyde at 37° C. for 5 minutes. After fixation, the cells were washed with PBS for 5 times and the cells were visualized using a confocal microscope (Zeiss Meta 510, Thornwood, N.Y.) with standard filter sets. Concomitant differential interference contrast (DIC) imaging was used to determine the location of nanoparticles in the cells.

Data set [4] is described as follows: Surface plasmon resonance (Biacore X 100) binding of peptides on immobilized perfluorocarbon nanoparticles. To be noted: VCAM-targeting peptides on perfluorocarbon nanoparticles; read-out: dissociation constant. How it is done: In order to evaluate whether linker peptide 1 (LP1) and linker peptide 2 (LP2) still retained high affinity on a lipid monolayer of the nanoparticles, surface plasmon resonance (SPR) studies were performed by using Biacore X 100 (Biacore Inc, Piscataway, N.J.). The binding kinetics and affinity of LP1 and LP2 on two type of nanoparticles were studied. One type was perfluorocarbon nanoparticles (e.g., perfluorooctylbromide, PFOB), the other type was oil-based (safflower core) nanoparticles. PBS (Ca^2+ and Mg^2+ free) was used as the running buffer. Nanoparticles were immobilized on Biacore sensor chip L1 by injecting nanoparticles at a flow rate of 1 μl/min for 30 minutes, followed by a running buffer wash at a flow rate of 100 μl/min for 50 seconds. Peptides in selected concentrations, prepared in running buffer, were then injected at a flow rate of 30 μl/min for 1 minute. At the end of each experiment, the sensor chip surface was regenerated by injection of 3-[(3-cholamidopropyl)dimethylammonio]-1-propanesulfonate (CHAPS) at a flow rate of 100 μl/min for 24 seconds.
The binding kinetics of the resulting VCAM-targeting peptides (i.e., TCP1 and TCP2) on perfluorocarbon nanoparticles were examined using Biacore X 100. PBS (Ca^2+ and Mg^2+ free) was used as the running buffer. Nanoparticles were immobilized on Biacore sensor chip L1 by injecting nanoparticles at a flow rate of 1 μl/min for 30 minutes, followed by a running buffer wash at a flow rate of 100 μl/min for 50 seconds. Targeting peptide prepared at selected concentrations in running buffer was sequentially injected at a flow rate of 30 μl/min for 1 minute. At the end of each experiment, the sensor chip surface was regenerated by injection of 3-[(3-cholamidopropyl)dimethylammonio]-1-propanesulfonate (CHAPS) at a flow rate of 100 μl/min for 24 seconds. FIG. 8 presents selected sensorgrams at several different concentrations of the two VCAM-targeting peptides. The dissociation constant of TCP1 and TCP2 were 0.13 μM and 0.04 μM, respectively.

The molecule `N=c1ccc2c(-c3ccc(C(=O)O)cc3C(=O)O)c3ccc(N)c(S(=O)(=O)O)c3oc-2c1S(=O)(=O)O` [Alexa Fluor 488] registered a diffusion time in data set [1] of 35.8±1.4 μsec.

For “NBD peptide (TALDWSWLQTE) fused onto the N-terminal of linker peptide (VLTTGLPALISWIKRKRQQ) with two glycines as a spacer [NBD-Linker]”, the mean diameters entry in data set [2] (PFC nanoparticles without and with various amount of peptide loading) was “equivalent”. The Kd in data set [3] was found to be 0.14 µM.

The molecule VLTTGLPALISWIKRggVHPKQHR [TCP1] had a zeta potential in data set [2] (PFOB nanoparticles after incorporating the peptide (plain nanoparticles −17.62 mV)) of 13.47 mV. The average hydrodynamic diameter entry in data set [2] (PFOB nanoparticles with versus without inserted peptide) is reported as “not affected”. Also, the “binding to cellular VCAM-1 (fluorescent signal)” value with VCAM-1 was “better binding”. In addition, the Kd in data set [4] was found to be 0.13 µM.
